Source: PubChem BioAssay (NCI)
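All cell lines were grown in 96-well plates and treated with compound for 48 hours. Here, GI50 denotes the concentration required for 50% inhibition of growth. TGI: concentration producing complete growth inhibition.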

Columns and labels:
Experiment in all cases: NCI anticancer screen, dose series, 48 h
[1] = system: ACHN renal
[2] = system: DU-145 prostate
[3] = system: NCI-H226 lung
[4] = system: RPMI-8226 leukemia
[5] = system: TK-10 renal
[6] = system: A498 renal
[7] = system: SNB-75 CNS
[8] = system: SK-MEL-5 melanoma
[9] = system: SF-295 CNS
[10] = system: OVCAR-3 ovarian
[11] = system: SK-OV-3 ovarian
[12] = system: BT-549 breast
[13] = system: MDA-MB-435
[14] = system: PC-3 prostate
[15] = system: OVCAR-4 ovarian
[16] = system: UO-31 renal
[17] = system: SW-620 colon
[18] = system: SNB-19 CNS
[19] = system: MDA-MB-231 breast
[20] = system: M14 melanoma
[21] = system: KM12 colon
[22] = system: MCF7 breast
[23] = system: EKVX NSCLC
[24] = system: HCT-116 colon
[25] = system: NCI-H460 lung
[26] = system: LOX IMVI melanoma
[27] = system: COLO 205 colon
[28] = system: SF-539 CNS
[29] = system: OVCAR-5 ovarian
[30] = system: HCT-15 colon
[31] = system: IGROV1 ovarian
[32] = system: MOLT-4 leukemia
[33] = system: SR leukemia
[34] = system: UACC-257 melanoma
[35] = system: 786-0 renal
[36] = system: A549 NSCLC
[37] = system: OVCAR-8 ovarian
[38] = system: UACC-62 melanoma
[39] = system: NCI-H522 lung
[40] = system: NCI-H23 lung
[41] = system: HL-60(TB) leukemia
[42] = system: K-562 leukemia
[43] = system: HS 578T breast
[44] = system: SF-268 CNS
[45] = system: NCI/ADR-RES ovarian
[46] = system: HT29 colon
[47] = system: RXF 393 renal
[48] = system: SK-MEL-2 melanoma
[49] = system: U251 CNS
[50] = system: SK-MEL-28 melanoma
[51] = system: CAKI-1 renal
[52] = system: SN12C renal
[53] = system: HOP-62 NSCLC
[54] = system: HOP-92 NSCLC

**Q.** N=C(N)c1ccc(-c2ccc(-c3ccc(Cl)cc3)o2)o1 was tested. Which GI50 [1] did it give?
**A.** The GI50 was 1.89 µM.

**Q.** What about the TGI [1] of the same compound?
**A.** Its TGI is 3.51 µM.

**Q.** What about the GI50 [2] of the same compound?
**A.** The GI50 was 1.75 µM.

**Q.** And the TGI [2]?
**A.** Its TGI is 3.27 µM.

**Q.** What about the GI50 [3] of the same compound?
**A.** Its GI50 is 2.19 µM.

**Q.** And the TGI [3]?
**A.** Its TGI is 6.46 µM.

**Q.** And the GI50 [4]?
**A.** Its GI50 is 2.12 µM.

**Q.** And the TGI [4]?
**A.** Its TGI is 4.78 µM.

**Q.** What about the GI50 [5] of the same compound?
**A.** Its GI50 is 2.07 µM.

**Q.** And the TGI [5]?
**A.** The TGI was 3.57 µM.

**Q.** What about the GI50 [6] of the same compound?
**A.** Its GI50 is 2.12 µM.

**Q.** And the TGI [6]?
**A.** The TGI was 7.59 µM.

**Q.** And the GI50 [7]?
**A.** Its GI50 is 1.5 µM.

**Q.** And the TGI [7]?
**A.** The TGI was 2.86 µM.

**Q.** What about the GI50 [8] of the same compound?
**A.** Its GI50 is 1.81 µM.

**Q.** And the TGI [8]?
**A.** Its TGI is 3.21 µM.

**Q.** What about the GI50 [9] of the same compound?
**A.** Its GI50 is 1.83 µM.

**Q.** And the TGI [9]?
**A.** Its TGI is 3.32 µM.

**Q.** What about the GI50 [10] of the same compound?
**A.** Its GI50 is 1.83 µM.

**Q.** And the TGI [10]?
**A.** The TGI was 3.43 µM.

**Q.** What about the GI50 [11] of the same compound?
**A.** The GI50 was 1.79 µM.

**Q.** And the TGI [11]?
**A.** Its TGI is 3.35 µM.

**Q.** And the GI50 [12]?
**A.** Its GI50 is 5.92 µM.

**Q.** And the TGI [12]?
**A.** Its TGI is 29.6 µM.

**Q.** And the GI50 [13]?
**A.** Its GI50 is 1.36 µM.

**Q.** What about the TGI [13] of the same compound?
**A.** The TGI was 2.69 µM.

**Q.** What about the GI50 [14] of the same compound?
**A.** The GI50 was 1.81 µM.

**Q.** What about the TGI [14] of the same compound?
**A.** Its TGI is 3.38 µM.

**Q.** Which results are given for CCOC(=O)c1c(-c2ccccc2)[n+](=O)c2ccc(Cl)cc2n1[O-]?
**A.** GI50 [15]: 4.25 µM; TGI [15]: 22.9 µM; GI50 [16]: 1.92 µM; TGI [16]: 3.69 µM; GI50 [17]: 5.59 µM; TGI [17]: 17.7 µM; GI50 [18]: 10.4 µM; TGI [18]: > 100 µM; GI50 [19]: 3.58 µM; TGI [19]: 13.8 µM; GI50 [20]: 10.1 µM; TGI [20]: 21.7 µM; GI50 [21]: 5.43 µM; TGI [21]: 18 µM; GI50 [22]: 5.37 µM; TGI [22]: 40.6 µM; GI50 [23]: 2.4 µM; TGI [23]: 8.32 µM; GI50 [1]: 2.93 µM; TGI [1]: 11.3 µM; GI50 [24]: 3.72 µM; TGI [24]: 16.4 µM; GI50 [25]: 5.36 µM; TGI [25]: 17.9 µM; GI50 [26]: 1.66 µM; TGI [26]: 3.91 µM; GI50 [27]: 3.89 µM; TGI [27]: 13.6 µM; GI50 [28]: 2.97 µM; TGI [28]: 13.1 µM; GI50 [29]: 7.12 µM; TGI [29]: 20.2 µM; GI50 [2]: 3.22 µM; TGI [2]: 11.9 µM; GI50 [3]: 5.2 µM; TGI [3]: 17.4 µM; GI50 [4]: 2.44 µM; TGI [4]: 6.62 µM; GI50 [30]: 3.89 µM; TGI [30]: 13.6 µM; GI50 [31]: 3.93 µM; TGI [31]: 16.5 µM; GI50 [32]: 4.93 µM; TGI [32]: 45.6 µM; GI50 [5]: 4.55 µM; TGI [5]: 23.6 µM; GI50 [6]: 12.7 µM; TGI [6]: 26.2 µM; GI50 [33]: 2.59 µM; TGI [33]: 11 µM; GI50 [34]: 4.06 µM; TGI [34]: 16.6 µM; GI50 [7]: 3.18 µM; TGI [7]: 18.8 µM; GI50 [35]: 6.98 µM; TGI [35]: 19.9 µM; GI50 [8]: 1.63 µM; TGI [8]: 3.33 µM; GI50 [36]: 8.46 µM; TGI [36]: 20.6 µM; GI50 [37]: 4.46 µM; TGI [37]: 16.8 µM; GI50 [38]: 12.5 µM; TGI [38]: 25.4 µM; GI50 [39]: > 100 µM; TGI [39]: > 100 µM; GI50 [9]: 4.87 µM; TGI [9]: 19.1 µM; GI50 [40]: 11.2 µM; TGI [40]: 23.4 µM; GI50 [41]: 5.66 µM; TGI [41]: 20.3 µM; GI50 [42]: 4.69 µM; TGI [42]: 18.5 µM; GI50 [43]: 4.63 µM; TGI [43]: 31.8 µM; GI50 [10]: 3.88 µM; TGI [10]: 15.8 µM; GI50 [11]: 15.5 µM; TGI [11]: > 100 µM; GI50 [44]: 4.28 µM; TGI [44]: 32.2 µM; GI50 [45]: 5.27 µM; TGI [45]: 18.1 µM; GI50 [46]: 11 µM; TGI [46]: 23 µM; GI50 [47]: 19.3 µM; TGI [47]: 49.5 µM; GI50 [48]: 40 µM; TGI [48]: > 100 µM; GI50 [49]: 2.68 µM; TGI [49]: 8.57 µM; GI50 [12]: 3.87 µM; TGI [12]: 15.7 µM; GI50 [50]: 18 µM; TGI [50]: 52.7 µM; GI50 [13]: 10.2 µM; TGI [13]: 26.4 µM; GI50 [51]: 3.82 µM; TGI [51]: 13.2 µM; GI50 [52]: 3.38 µM; TGI [52]: 13.1 µM; GI50 [14]: 3.05 µM; TGI [14]: 12 µM; GI50 [53]: 8.64 µM; TGI [53]: 20.8 µM; GI50 [54]: 1.93 µM; TGI [54]: 4.91 µM

**Q.** With Cc1cc(N2CCCCCC2)nc(NC2CCCC(Nc3ccnc4cc(Cl)ccc34)C2)n1 (stereo unspecified) as the compound, how does the GI50 [15] read?
**A.** The GI50 was 1.56 µM.

**Q.** What about the TGI [15] of the same compound?
**A.** Its TGI is 3.25 µM.

**Q.** And the GI50 [20]?
**A.** The GI50 was 1.19 µM.

**Q.** What about the TGI [20] of the same compound?
**A.** Its TGI is 2.74 µM.

**Q.** And the GI50 [1]?
**A.** Its GI50 is 1.54 µM.

**Q.** What about the TGI [1] of the same compound?
**A.** The TGI was 2.87 µM.

**Q.** And the GI50 [2]?
**A.** The GI50 was 1.61 µM.

**Q.** What about the TGI [2] of the same compound?
**A.** The TGI was 2.99 µM.

**Q.** What about the GI50 [3] of the same compound?
**A.** The GI50 was 2.01 µM.

**Q.** What about the TGI [3] of the same compound?
**A.** Its TGI is 3.76 µM.

**Q.** And the GI50 [5]?
**A.** The GI50 was 1.99 µM.

**Q.** And the TGI [5]?
**A.** Its TGI is 3.54 µM.

**Q.** And the GI50 [6]?
**A.** The GI50 was 1.44 µM.

**Q.** And the TGI [6]?
**A.** Its TGI is 2.86 µM.

**Q.** And the GI50 [34]?
**A.** Its GI50 is 2.17 µM.

**Q.** What about the TGI [34] of the same compound?
**A.** The TGI was 3.7 µM.

**Q.** What about the GI50 [35] of the same compound?
**A.** The GI50 was 1.27 µM.

**Q.** What about the TGI [35] of the same compound?
**A.** The TGI was 2.6 µM.

**Q.** And the GI50 [8]?
**A.** Its GI50 is 1.67 µM.

**Q.** And the TGI [8]?
**A.** The TGI was 3.04 µM.

**Q.** What about the GI50 [9] of the same compound?
**A.** Its GI50 is 1.45 µM.

**Q.** And the TGI [9]?
**A.** Its TGI is 2.84 µM.

**Q.** What about the GI50 [43] of the same compound?
**A.** Its GI50 is 1.8 µM.

**Q.** And the TGI [43]?
**A.** The TGI was 4.42 µM.

**Q.** What about the GI50 [10] of the same compound?
**A.** The GI50 was 1.76 µM.

**Q.** And the TGI [10]?
**A.** The TGI was 3.39 µM.

**Q.** And the GI50 [11]?
**A.** The GI50 was 1.77 µM.

**Q.** And the TGI [11]?
**A.** Its TGI is 3.23 µM.

**Q.** And the GI50 [47]?
**A.** Its GI50 is 1.2 µM.

**Q.** What about the TGI [47] of the same compound?
**A.** The TGI was 2.58 µM.

**Q.** What about the GI50 [49] of the same compound?
**A.** The GI50 was 1.47 µM.

**Q.** And the TGI [49]?
**A.** The TGI was 2.78 µM.

**Q.** And the GI50 [12]?
**A.** The GI50 was 1.44 µM.

**Q.** What about the TGI [12] of the same compound?
**A.** Its TGI is 3.09 µM.

**Q.** What about the GI50 [13] of the same compound?
**A.** Its GI50 is 1.63 µM.

**Q.** What about the TGI [13] of the same compound?
**A.** The TGI was 3.08 µM.

**Q.** What about the GI50 [14] of the same compound?
**A.** The GI50 was 1.63 µM.

**Q.** And the TGI [14]?
**A.** Its TGI is 3.2 µM.

**Q.** What about the GI50 [53] of the same compound?
**A.** Its GI50 is 1.63 µM.

**Q.** And the TGI [53]?
**A.** Its TGI is 3.15 µM.
